“And” between values parts separate entries of the source, which are not always exact repeats. Identical values can stand only once. Counter-ions that a name gives are not always drawn. Blank lines part the entries; values can stand above or below the compound they belong to.
Columns and labels:
[1] = GVS (gravimetric vapour sorption), single cycle; assay type: physicochemical
Experimental: (§1) Form I was characterized by pKa, LogP, LogPion and LogD determination and prediction, XRPD before and after storage at 40° C./75% RH for 4 weeks, PLM, DSC and TGA, ^1HNMR, solubility in water with pH measurement, HPLC purity before and after storage at 40° C./75% RH for 4 weeks, water content, GVS with XRPD and purity analysis after measurement, and VT-XRPD.
This weight increase was not associated with any significant hysteresis between the adsorption and desorption cycles.

[2] = assay type: physicochemical
Experimental: as §1
As expected from the predicted values, the compound is suitable for a mono salt screen and should form strong stable salts.

[3] = Experimental: The suspension was then equilibrated at 25° C. for 24 hours followed by a pH check and filtration through a glass fibre C 96 well plate. […] HPLC using a generic 5 minute method was used to quantify the amount of sample in solution with reference to a standard dissolved in DMSO at 0.1 mg/ml. Various volumes of the standard, diluted and undiluted tests were injected. […] If sufficient solid remained in the filter plate the XRPD was normally checked for phase changes, hydrate formation, amorphization, crystallization and other changes.
[4] = Storage at 40° C./75% RH (XRPD, HPLC purity, colour); assay type: physicochemical
[5] = assay type: physicochemical; remark: listed apart in the source
Experimental: as §1
LogP, LogPion and LogD values were measured by using different ratios of 0.1 5M KCl(Aq) to 1-octanol, with refinement of a multiset of the data. The measured LogP, 3.96, is in good agreement with the predicted values.

ferrets = experiment: Cisplatin-induced emesis in the ferret; assay type: in vivo, Mustela putario furo
Experimental: The ability of MCI-225 to reduce retching and vomiting in an accepted model of cytotoxin-induced emesis in the ferret was assessed. Specifically, the experiments described herein investigated the effect of MCI-225 on retching and vomiting induced by cisplatin. Ondansetron was used as a positive control in the model, in view of its known antiemetic activity. Adult male ferrets (Mustela putario furo) weighing 1200-1880 g were purchased from Triple F Farms (Sayre, Pa.) and housed in individual cages at standardized conditions (12:12 h light/dark cycle and 21-23° C.). Prior to the experiments, the ferrets were allowed a 7-10 day acclimatization period to the animal facility. The ferrets were fed a carnivore diet with free access to food and water throughout the course of the study. The use of the ferret model of emesis and the drug treatment were preapproved in accordance with facility standards. A cisplatin solution was prepared by adding preheated (70° C.) saline to cisplatin powder (Sigma-Aldrich Co.) and stirring or sonicating at 40° C. until dissolved. Following administration of the cisplatin and either MCI-225, ondansetron or vehicle alone, the occurrence of retching and vomiting was monitored for a period of 6 hours. Retching was defined as the number of forceful rhythmic contractions of the abdomen occurring with the animal in characteristic posture, but not resulting in the expulsion of upper gastrointestinal tract contents (Watson et al., British Journal of Pharmacology, 115(1): 84-94 (1994)). Vomiting was defined as the forceful oral expulsion of upper gastrointestinal contents. The latency of the retching or vomiting response and the number of episodes were recorded for each animal and summarized for each experimental group (Wright et al., Infect. Immun., 68(4): 2386-9 (2000)). Following one hour of acclimation to the observation cage, ferrets received an intraperitoneal (i.p.) injection of cisplatin (5 mg/kg in 5 mL) followed in about 2 minutes by i.p. injection of a single dose of MCI-225 or ondansetron (Rudd and Naylor, Eur. J. Pharmacol., 322: 79-82 (1997)). Dose-response effects of MCI-225 dosed at 1, 10 and 30 mg/kg i.p. in a 0.5 mL/kg solution or ondansetron dosed at 5 and 10 mg/kg i.p. in a 0.5 mL/kg solution were studied. Each animal received a single-dose drug treatment. In addition, three animals received an initial dose (30 mg/kg i.p.) and a second MCI-225 injection (30 mg/kg i.p.) 180 minutes following the initial dose. […] All groups were randomized.

rats [6] = experiment: Small Intestinal Transit Rodent Model (charcoal meal); assay type: in vivo, rat; details: for Small intestinal transit, Mean (% of total small intestinal length): 15-min test period
Experimental: Following an overnight fast, rats were brought to the laboratory in their home cages and received an i.p. injection of one of the following: […] Control rats received no treatment. The treated rats were placed back in the home cages and after 30 min, were fed a 2 mL charcoal meal via an oral gavage. Small intestinal transit was measured following 15 min test-period. Each rat was placed briefly in a glass chamber with IsoFlo for anesthesia and sacrificed. The stomach and the small intestine were removed and the total length of the small intestine was measured. Transit was then measured as the distance that the charcoal meal had traveled along the small intestine and expressed as % of the total length. Animals were randomly assigned to experimental groups and experiments were performed as illustrated in Table 3. Ondansetron was supplied from APIN Chemicals LTD. […] MCI-225 was provided by Mitsubishi Pharma Corp. All drugs were dissolved in a vehicle of 100% propylene glycol (1,2-Propanediol) by sonicating for 10 min. Propylene glycol was obtained from Sigma Chemical Co. Ondansetron, a 5-HT3-receptor antagonist was dosed i.p. at 1, 5, and 10 mg/kg. […] All doses were delivered in a final volume of 200 μL. Animals in the vehicle control group received 200 μL of 100% Propylene glycol and animals in the normal control group were untreated. Small intestinal transit in rats was investigated by the passage of a charcoal meal along the small intestine during a defined time period (15-min). The animals were deprived of food for 12-16 hrs prior to the experiments. Rats were given a charcoal meal (a mixture of charcoal, gum arabic, and distilled water) as a 2 mL oral gavage and were sacrificed after a 15-min test period. The distance traveled by the charcoal meal was quantified as a percent of the small intestinal length, using the following equation: Transit (%)=cm traveled by meal/cm total small intestinal length×100 […] Statistical analysis was performed to determine mean, standard error to the mean and standard deviation for each group (See Table 3). Differences between individual dose groups within treatments and comparisons between drug-treated and vehicle-treated groups were determined using an unpaired t test considering that when % is used as a relative unit, t-statistic is relevant. In all cases p<0.05 was considered statistically significant.

rats [7] = experiment: Visceromotor response to colorectal distension, acetic acid-induced colonic hypersensitivity; assay type: in vivo, rat; details: for Visceromotor response (number of abdominal contractions) to colorectal distension vs vehicle: all doses tested i.p. (ondansetron 1, 5, 10; nisoxetine 3, 10, 30 mg/kg)
Experimental: A 10 min recovery was allowed between distensions.
Adult male rats were used in the study.
Ten minute recovery periods were allowed following each distension.
Statistical significance of the treatment groups was assessed using one-way ANOVA followed by Tukey post-test. […] (*) p<0.05, (**) p<0.01, (***) p<0.001

rats [8] = experiment: Water avoidance stress (WAS) model of increased colonic transit, fecal pellet output; assay type: in vivo, rat; details: for WAS-induced fecal pellet output in 1 hour: all doses tested i.p. (MCI-225, nisoxetine 3, 10, 30; ondansetron 1, 5, 10 mg/kg)
Experimental: Ondansetron (5-HT3 receptor antagonist), nisoxetine (NARI) and a combination of ondansetron and nisoxetine were used as comparison compounds. The model provides a method of evaluating the effectiveness of a compound in a specific patient group of IBS sufferers where stress induced colonic motility is considered a significant contributing factor.
Fecal pellet output was measured by counting the total number of fecal pellets produced during 1 hour of WAS.
All rats underwent sham stress (I-hour in stress chamber without water) for 2-4 consecutive days before undergoing WAS (sham was performed until rats produced 0-1 pellet per hour for 2 consecutive days). At the end of the 1-hour stress period, the fecal pellets were counted and recorded.
WAS causes an acceleration of colonic transit, which can be quantified by counting the number of fecal pellets, produced during the stress procedure. Rats were placed for 1-hour into a stress chamber onto a raised platform 7.5 cm×7.5 cm×9 cm (L×W×H) in the center of a stress chamber filled with room temperature water 8 cm in depth.
Control drugs for this study were ondansetron and nisoxetine. Ondansetron was supplied from APIN Chemicals LTD. Nisoxetine was supplied by Tocris. […] All drugs and the vehicle were administered as an i.p. injection in a volume of 0.2 mL.
Statistical significance was assessed using one-way ANOVA followed by Tukey post-test. Statistical differences were compared between the WAS groups and the sham stress group and was considered significant if p<0.05. (*) p<0.05, (**) p<0.01, (***) p<0.001

[9] = 30 mg/kg b.i.d, i.p., 180-min interval

GVS total weight increase ([1]; between 0 and 90% RH): 5.0% | GVS weight increase ([1]; between 20% and 30% RH, equivalent to 1.0 moles of water): about 4.8% | pKa (basic) [2]: 8.64 | pKa of second basic centre [2]: 0.81 | Aqueous solubility [3]: 2100 µg/mL | Aqueous solubility, equivalent as the free base [3]: 1700 µg/mL | pH after solubility equilibration [3]: 6.33 | Appearance of material surface after storage ([4]; 4 weeks at 40° C./75% RH, ambient light): gone yellow | HPLC purity after storage ([4]; 4 weeks at 40° C./75% RH, ambient light, initial purity 100%): 99.0% | XRPD pattern after storage ([4]; 40° C./75% RH, four weeks): unchanged | LogP [5]: 3.96 | LogPion [5]: 1.41 | LogD ([5]; pH 7.4): 2.72
Compound: 4-(2-fluorophenyl)-6-methyl-2-(piperazin-1-yl)thieno[2,3-d] pyrimidine hydrochloride [MCI-225]

Compound: Cc1cc2c(-c3ccccc3F)nc(N3CCNCC3)nc2s1 [MCI-225, 4-(2-fluorophenyl)-6-methyl-2-(piperazin-1-yl)thieno[2,3-d] pyrimidine hydrochloride]
Latency (ferrets; 1 mg/kg i.p.): 186 ± 35 min | Retches (360 min) (ferrets; 1 mg/kg i.p.): 30.4 ± 9.1 | Total Events (ferrets; 1 mg/kg i.p.): 32.9 ± 9.8 | Vomits (360 min) (ferrets; 1 mg/kg i.p.): 2.5 ± 0.7 | Latency (ferrets; 10 mg/kg i.p.): 192 ± 57 min | Retches (360 min) (ferrets; 10 mg/kg i.p.): 22.9 ± 10.3 | Total Events (ferrets; 10 mg/kg i.p.): 25.5 ± 11.1 | Vomits (360 min) (ferrets; 10 mg/kg i.p.): 2.6 ± 1.0 | Latency (ferrets; [9]): 360 ± 0 min | Retches (360 min) (ferrets; [9]): 0.0 ± 0.0 | Total Events (ferrets; [9]): 0.0 ± 0.0 | Vomits (360 min) (ferrets; [9]): 0.0 ± 0.0 | Latency (ferrets; 30 mg/kg i.p.): 287 ± 38 min | Retches (360 min) (ferrets; 30 mg/kg i.p.): 3.3 ± 2.2 | Total Events (ferrets; 30 mg/kg i.p.): 4.0 ± 2.6 | Vomits (360 min) (ferrets; 30 mg/kg i.p.): 0.7 ± 0.5 | Small intestinal transit, Mean (% of total small intestinal length) (rats [6]; 3 mg/kg i.p.): 30.1% | Small intestinal transit, Mean (% of total small intestinal length) (rats [6]; 10 mg/kg i.p., hydrochloride): 4.2±2.6% and 4.2% | Small intestinal transit, Mean (% of total small intestinal length) (rats [6]; 30 mg/kg i.p.): 8.8% | Animals in which the visceromotor response to CRD was eliminated (rats [7]; 30 mg/kg i.p., acetic acid sensitized rats): 50 % of the animals

Compound: CNCCC(Oc1ccccc1OC)c1ccccc1 (centres unmarked) [Nisoxetine]
Animals with charcoal meal completely retained in the stomach (rats [6]; 30 mg/kg i.p.): 4 out of 5 | Small intestinal transit (rats [6]; 30 mg/kg i.p.): almost completely inhibited the transit | Small intestinal transit (rats [6]; 3 or 10 mg/kg i.p.): tendency to decrease small intestinal transit | Behavior in the home cage during the experiments (rats [7]; 30 mg/kg i.p.): increased exploratory behavior | Visceromotor response (number of abdominal contractions) to colorectal distension vs vehicle (rats [7]): no significant effect | Fecal pellets produced during WAS vs vehicle treated group (rats [8]; 10 and 30 mg/kg i.p.): significantly fewer fecal pellet produced | WAS-induced fecal pellet output in 1 hour (rats [8]): reduced by all doses

Compound: Cc1nccn1CC1CCc2c(c3ccccc3n2C)C1=O (centres unmarked) [Ondansetron]
Latency of the emetic response following cisplatin (ferrets; all doses tested i.p.): increase in the latency | Emetic events (retches and vomits) induced by cisplatin (ferrets; all doses tested i.p. (ondansetron 5, 10; MCI-225 1, 10, 30 mg/kg)): dose-dependently reduced the number of emetic events | Small intestinal transit vs vehicle (rats [6]; all doses tested i.p. (MCI-225 3, 10, 30; ondansetron 1, 5, 10 mg/kg)): significant reduction in small intestinal transit | Visceromotor responses at moderate and high intraluminal pressure (rats [7]; 10 mg/kg i.p., 30 and 60 mmHg): did not abolish the responses | Behavioral activity of the rats (rats [7]; 1, 5 or 10 mg/kg i.p.): No significant changes in the behavioral activity | Visceromotor response (number of abdominal contractions) to colorectal distension vs vehicle (rats [7]): dose-dependent decrease in the number of abdominal contractions | WAS-induced fecal pellet output in 1 hour (rats [8]): dose-dependent inhibition
